One data set has as its system MDA–MB-231 cells. Briefly: Sulforhodamine B (SRB) antiproliferative assay, MDA–MB-231. The format is cell-based, human. Conditions: for IC50: Homo sapiens, 48 h, SRB; for IC50 / inhibition on cell proliferation: MDA–MB-231 cells; for inhibition on cell proliferation: 100 μM dose, SRB screening; for Selectivity index (SI): MDA–MB-231 relative to healthy HUVEC cells. How it is done:
(§1) MCF-7 (human breast cancer) and HUVEC (human umbilical vein endothelial) cell lines were cultured and maintained in high glucose Dulbecco’s modified Eagle medium supplemented with 10% FBS (Gibco Life Technologies, Grand Island, NY, USA), 100 U/mL penicillin, and […]. The MDA–MB-231 (human breast cancer) cell line was cultured in Roswell Park Memorial Institute 1640 (RPMI 1640) medium supplemented with 10% FBS (Gibco Life Technologies), 100 U/mL penicillin, and […]. All cells were passaged by trypsin EDTA when they reached 60%–70% confluence. The cells were cultivated at 37 °C in humidified air containing 5% CO2.
(§2) The antiproliferative effects of compounds on breast cancer cells were determined by the sulforhodamine B (SRB) assay. In short, cells were seeded in a 96-well cell culture plate at a density of 5 × 10^4 cells/mL and the plate was incubated for 24 h in a CO2 incubator at 37 °C. MCF-7, MDA–MB-231, and HUVEC cells were cultured for 48 h with escalating doses (1, 5, 10, 25, 50, and 100 μM) of the derivatives for determination of the IC50 values. After incubation, the medium was removed from the wells and each well was incubated with a 10% trichloroacetic acid (TCA) solution for fixation at +4 °C for 1 h. The wells were washed five times with distilled water (dH2O) to get rid of the TCA and the plate was left to dry. Fresh 0.04 (m/V) SRB dye solution was added to each well, followed by incubation for 30 min at room temperature. The plate was then dried using an air dryer after being washed four times with 1% acetic acid solution. The wells were incubated in 10 mM of the tris-base solution (pH 10.5) for 10 min on a shaker and absorbance values were measured at 565 nm with a microplate reader (Tecan Infinite® 200 PRO, Switzerland). The IC50 values of the compounds were recorded using the software GraphPad Prism 5.

In the next data set the test system is HUVEC cells. Put plainly: Sulforhodamine B (SRB) cytotoxicity assay, HUVEC healthy cells. In kind it is cell-based. The note with it: Homo sapiens, 48 h. How it is done:
as §1
The antiproliferative effects of compounds on breast cancer cells were determined by the sulforhodamine B (SRB) assay. In short, cells were seeded in a 96-well cell culture plate at a density of 5 × 10^4 cells/mL and the plate was incubated for 24 h in a CO2 incubator at 37 °C. MCF-7, MDA–MB-231, and HUVEC cells were cultured for 48 h with escalating doses (1, 5, 10, 25, 50, and 100 μM) of the derivatives for determination of the IC50 values. […] The wells were incubated in 10 mM of the tris-base solution (pH 10.5) for 10 min on a shaker and absorbance values were measured at 565 nm with a microplate reader (Tecan Infinite® 200 PRO, Switzerland). The IC50 values of the compounds were recorded using the software GraphPad Prism 5.

The next data set has as its system Bax/Bcl-2 genes. Put plainly: Bax/Bcl-2 mRNA expression by qPCR in MDA–MB-231 cells. The format is cell-based, human. Here is the method:
The mRNA levels of the Bax and Bcl-2 genes were analyzed using a qPCR protocol, following the procedure described previously. Briefly, total RNA was extracted from MDA–MB-231 cells using the Total® RNA Purification Plus Kit, following the manufacturer’s instructions (Norgen Biotek, Thorold, ON, Canada). Subsequently, synthesis of cDNA was carried out using the high-capacity cDNA reverse transcription kit (Applied Biosystems, Foster City, CA, USA). The diluted cDNA samples were combined with specific Taqman probes and Taqman PCR Master Mix, and the amplification was recorded using Applied Biosystems 7500 Real-Time PCR systems (Applied Biosystems, Thermo Fisher Scientific) for qPCR. Changes in mRNA expression levels were determined using the comparative ΔΔCT method, with β-actin serving as an endogenous control for the qPCR analysis.
(In general: In qPCR the cycle at which signal appears reflects the starting amount.)

The next data set concerns MCF-7 cells. Briefly: Sulforhodamine B (SRB) antiproliferative assay, MCF-7. The note with it: for IC50: Homo sapiens, MCF7, 48 h, SRB; for IC50 / inhibition on cell proliferation: MCF-7 cells; for inhibition on cell proliferation: 100 μM dose, SRB screening; for Selectivity index (SI): MCF-7 relative to healthy HUVEC cells. The format is cell-based, human. Here is the method: as §1, §2
(In SRB staining, fixed cells bind dye roughly in proportion to their protein.)

The melting point is the temperature of the solid-liquid transition. `c1ccc(NCc2cn3cccnc3n2)cc1` [4a, N-(Phenyl)-1-(imidazo[1,2-a]pyrimidin-2-yl)methanamine] registered a melting point of 194 to 197 °C.

`FC(F)(F)c1ccc(NCc2cn3cccnc3n2)cc1` [4e, N-(4-Trifluoromethylphenyl)-1-(imidazo[1,2-a]pyrimidin-2-yl)methanamine] registered a melting point of 217 to 218 °C.

What is called IC50 is the midpoint of a concentration-inhibition curve. For `CCN(CC)c1ccc(/N=C/c2cn3cccnc3n2)cc1` [3d, N-(4-(N^ı,N^ı-Diethylamino)phenyl)-1-(imidazo[1,2-a]pyrimidin-2-yl)methanimine], the melting point fell in the range of 182 to 183 °C. In addition, in the data set with MDA–MB-231 cells, the half-inhibitory concentration (IC50) is 35.9 µM, the “inhibition on cell proliferation” value is on record as “greatest inhibition” and the “Selectivity index (SI)” value is given as 2.0. Moreover, it took 71.4 µM to reach half-maximal inhibition in the data set with HUVEC cells (IC50). Also, the “Bax/Bcl-2 ratio (mRNA expression level)” value in the data set on Bax/Bcl-2 genes (IC50 dose (4d: 35.1 μM)) is reported as “did not have significant effects”. Further, in the data set on Bax/Bcl-2 genes (IC50 × 2 dose (4d: 70.2 μM)), the “Bax/Bcl-2 ratio (mRNA expression level)” value is “did not have significant effects”. Also, in the data set with MCF-7 cells, the IC50 is 43.4 µM, the “inhibition on cell proliferation” value is reported as “greatest inhibition” and the “Selectivity index (SI)” value is reported as 1.6.

Regarding `CCN(CC)c1ccc(NCc2cn3cccnc3n2)cc1` [4d, N-(4-(N^ı,N^ı-Diethylamino)phenyl)-1-(imidazo[1,2-a]pyrimidin-2-yl)methanamine], the melting point fell in the range of 146 to 148 °C. In addition, in the data set with MDA–MB-231 cells, the IC50 stood at 35.1 µM, the “inhibition on cell proliferation” value was “greatest inhibition” and the “Selectivity index (SI)” value was found to be 1.6. Also, the half-maximal inhibitory concentration (IC50) with HUVEC cells is 57 µM. The “Bax/Bcl-2 ratio (mRNA expression level)” value with Bax/Bcl-2 genes (IC50 dose (4d: 35.1 μM)) is 1.5 fold. In addition, in the data set with Bax/Bcl-2 genes (IC50 × 2 dose (4d: 70.2 μM)), the “Bax/Bcl-2 ratio (mRNA expression level)” value worked out at 1.8 fold. For the same molecule, in the data set with MCF-7 cells, the half-inhibitory concentration (IC50) is 39 µM, the “inhibition on cell proliferation” value is “greatest inhibition” and the “Selectivity index (SI)” value is on record as 1.5.

`COc1ccc(NCc2cn3cccnc3n2)cc1` [4c, N-(4-Methoxyphenyl)-1-(imidazo[1,2-a]pyrimidin-2-yl)methanamine] gave a melting point of 175 to 176 °C.

Turning to `FC(F)(F)c1ccc(N=Cc2cn3cccnc3n2)cc1` [3e, N-(4-Trifluoromethylphenyl)-1-(imidazo[1,2-a]pyrimidin-2-yl)methanimine], the melting point lay within 224 to 226 °C.

`COc1ccc(N=Cc2cn3cccnc3n2)cc1` [3c, N-(4-Methoxyphenyl)-1-(imidazo[1,2-a]pyrimidin-2-yl)methanimine] came in with a melting point of 191 to 192 °C.

Molecule `c1ccc2c(NCc3cn4cccnc4n3)cccc2c1` [4b, N-(Naphthalen-1-yl)-1-(imidazo[1,2-a]pyrimidin-2-yl)methanamine] showed a melting point of 217 to 219 °C.

Source of the values: publication PMC10760840, “Synthesis of new imine-/amine-bearing imidazo[1,2-a]pyrimidine derivatives and screening of their cytotoxic activity” (Turkish Journal of Chemistry, 2023).
